Measured values: US20110312974A1, “HETEROARYL ANTAGONISTS OF PROSTAGLANDIN D2 RECEPTORS” (AMIRA PHARMACEUTICALS, INC., priority 2008, published 2011)

molecular target: T1, human DP2 receptor (Homo sapiens, UniProt Q9Y5Y4); assay: DP2/CRTH2 radioligand binding assay using [3H]PGD2; details: hDP2 (CRTH2) binding assay; membranes of HEK293 cells expressing recombinant human DP2, 1 nM [3H]PGD2
T1 construct: expressed in transfected cells; membrane preparation
T1 sequence (Q9Y5Y4 1-395): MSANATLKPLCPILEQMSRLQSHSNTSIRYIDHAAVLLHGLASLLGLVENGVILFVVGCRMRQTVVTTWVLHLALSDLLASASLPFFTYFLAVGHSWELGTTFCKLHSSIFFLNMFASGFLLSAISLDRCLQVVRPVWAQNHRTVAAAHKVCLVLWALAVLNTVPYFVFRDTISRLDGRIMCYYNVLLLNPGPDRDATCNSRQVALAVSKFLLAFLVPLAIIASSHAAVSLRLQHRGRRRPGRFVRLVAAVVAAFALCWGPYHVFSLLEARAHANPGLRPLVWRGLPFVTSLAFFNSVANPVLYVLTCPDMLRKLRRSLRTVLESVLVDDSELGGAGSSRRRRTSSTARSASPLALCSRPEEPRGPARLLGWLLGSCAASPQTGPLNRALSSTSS
Experimental: The ability of a compound to bind to the human DP2 receptor is assessed via a radioligand binding assay using [^3H]PGD2. HEK293 cells stably expressing recombinant human DP2 are resuspended in 10 mM Hepes, 7.4 containing 1 mM DTT, lysed and centrifuged at 75,000×g to pellet the membranes. The membranes are resuspended in 10 mM Hepes, 7.4 containing 1 mM DTT and 10% glycerol to approximately 5 mg protein/ml. Membranes (2-10 μg protein/well) are incubated in 96-well plates with 1 nM [^3H]PGD2 and test compound in Assay Buffer (50 mM Hepes, 10 mM MnCl2, 1 mM EDTA, plus or minus 0.2% human serum albumin, pH 7.4) for 60 minutes at room temperature. The reactions are terminated by rapid filtration through Whatman GF/C glass fibre filter plates. The filter plates were pre-soaked in 0.33% polythylenimine for 30 minutes at room temperature then washed in Wash Buffer (50 mM Hepes, 0.5 M NaCl pH 7.4) prior to harvesting. After harvesting, the filter plates are washed 3 times with 1 ml cold Wash Buffer then dried. Scintillant is then added to the plates and the radioactivity retained on the filters is determined on a Packard TopCount (Perkin Elmer). Specific binding is determined as total radioactive binding minus non-specific binding in the presence of 10 μM PGD2. IC50s were determined using GraphPad prism analysis of drug titration curves.

IC50 [nM] | SMILES
> 1000 | O=C(O)Cc1cncc(-c2ccc(C(F)(F)F)cc2CN(CCc2ccncc2)C(=O)C2CC2)c1 [Compound 1-66, [5-(2-{[N-Cyclopropanecarbonyl-N-(2-pyridin-4-yl-ethyl)-amino]-methyl}-4-trifluoromethyl-phenyl)-pyridin-3-yl]-acetic acid]
< 300 | CCN(Cc1cc(C(F)(F)F)ccc1-c1cc(CC(=O)O)cnc1OCc1ccccc1)C(=O)C1CC1 [Compound 1-68, (6-Benzyloxy-5-{2-[(N-cyclopropanecarbonyl-N-ethyl-amino)-methyl]-4-trifluoromethyl-phenyl}-pyridin-3-yl)-acetic acid]
< 300 | CCN(Cc1cc(C(F)(F)F)ccc1-c1cc(CC(=O)O)cnc1OCC1CC1)C(=O)C1CC1 [Compound 1-69, (5-{2-[(N-Cyclopropanecarbonyl-N-ethyl-amino)-methyl]-4-trifluoromethyl-phenyl}-6-cyclopropylmethoxy-pyridin-3-yl)-acetic acid]
< 300 | CCN(Cc1cc(C(F)(F)F)ccc1-c1cc(CC(=O)O)cnc1OCc1csc(C)n1)C(=O)C1CC1 [Compound 1-70, [5-{2-[(N-Cyclopropanecarbonyl-N-ethyl-amino)-methyl]-4-trifluoromethyl-phenyl}-6-(2-methyl-thiazol-4-ylmethoxy)-pyridin-3-yl]-acetic acid]
> 1000 | CCN(Cc1cc(C(F)(F)F)ccc1-c1cc(CC(=O)O)cnc1-c1ccccc1)C(=O)C1CC1 [Compound 1-76, (5-{2-[(N-Cyclopropanecarbonyl-N-ethyl-amino)-methyl]-4-trifluoromethyl-phenyl}-6-phenyl-pyridin-3-yl)-acetic acid]
< 300 | CCN(Cc1cc(C(F)(F)F)ccc1-c1cncc(CC(=O)O)c1)S(=O)(=O)c1cccc2c(N(C)C)cccc12 [Compound 1-77, [5-(2-{[N-(5-Dimethylamino-naphthalene-1-sulfonyl)-N-ethyl-amino]-methyl}-4-trifluoromethyl-phenyl)-pyridin-3-yl]-acetic acid]
> 1000 | CCNCc1cc(C(F)(F)F)ccc1-c1cncc(CC(=O)O)c1 [Compound 1-78, [5-(2-Ethylaminomethyl-4-trifluoromethyl-phenyl)-pyridin-3-yl]-acetic acid]
< 300 | C[C@H]1[C@@H](c2ccccc2)OC(=O)N1Cc1cc(C(F)(F)F)ccc1-c1cncc(CC(=O)O)c1 [Compound 2-1, {5-[2-((4S,5R)-4-Methyl-2-oxo-5-phenyl-oxazolidin-3-ylmethyl)-4-trifluoromethyl-phenyl]-pyridin-3-yl}-acetic acid]
< 300 | CCN(Cc1cc(C(F)(F)F)ccc1-c1cnn(CC(=O)O)c1)C(=O)C1CC1 [Compound 3-1, (4-{2-[(N-Cyclopropanecarbonyl-N-ethyl-amino)-methyl]-4-trifluoromethyl-phenyl}-pyrazol-1-yl)-acetic acid]
> 1000 | CCN(Cc1cc(C(F)(F)F)ccc1-c1c(C)nn(CC(=O)O)c1C)C(=O)C1CC1 [Compound 3-2, (4-{2-[(N-Cyclopropanecarbonyl-N-ethyl-amino)-methyl]-4-trifluoromethyl-phenyl}-3,5-dimethyl-pyrazol-1-yl)-acetic acid]
< 300 | Cc1nn(CC(=O)O)c(C)c1-c1ccc(C(F)(F)F)cc1CN(Cc1ccccc1)C(=O)C1CC1 [Compound 3-3, (4-{2-[(N-Benzyl-N-cyclopropanecarbonyl-amino)-methyl]-4-trifluoromethyl-phenyl}-3,5-dimethyl-pyrazol-1-yl)-acetic acid]
